In the NIST ThermoML archive (doi:10.1016/j.jct.2019.06.027):

Key:
[1] = for surface tension liquid-gas: Maximal bubble pressure; for mass density: 101.33 kPa, Liquid, Vibrating tube method
[2] = refractive index (Na D-line) (dimensionless); details: 101.33 kPa, Liquid, Standard Abbe refractometry

CCOCCn1cc[n+](C)c1.[Br-] [1-(2-ethoxyethyl)-3-methylimidazolium bromide]
Details | mass density, [1] [kg/m3] | refractive index, [2] | surface tension liquid-gas, [1] [mN/m]
288.15 K | 1360.32 | 1.5473 | 50.9
293.15 K | 1356.56 | 1.5458 | 50.5
298.15 K | 1352.79 | 1.5441 | 50.2
303.15 K | 1349.05 | 1.5426 | 49.8
308.15 K | 1345.33 | 1.5409 | 49.5
313.15 K | 1341.63 | 1.5391 | 49.2
318.15 K | 1337.99 | 1.5376 | 48.9
323.15 K | 1334.35 | 1.5357 | 48.6
328.15 K | 1330.24 | 1.5341 | 48.3

CCOCCn1cc[n+](C)c1.[Cl-] [1-(2-ethoxyethyl)-3-methylimidazolium chloride]
Details | mass density, [1] [kg/m3] | refractive index, [2] | surface tension liquid-gas, [1] [mN/m]
288.15 K | 1143.13 | 1.5269 | 47.8
293.15 K | 1139.98 | 1.5255 | 47.3
298.15 K | 1136.83 | 1.524 | 46.9
303.15 K | 1133.69 | 1.5225 | 46.5
308.15 K | 1130.57 | 1.5206 | 46
313.15 K | 1127.45 | 1.5184 | 45.6
318.15 K | 1124.37 | 1.5159 | 45.2
323.15 K | 1121.28 | 1.5142 | 44.8
328.15 K | 1118.21 | 1.5119 | 44.3

COCCn1cc[n+](C)c1.[Cl-] [1-(2-methoxyethyl)-3-methylimidazolium chloride]
Details | mass density, [1] [kg/m3] | refractive index, [2] | surface tension liquid-gas, [1] [mN/m]
288.15 K | 1168.6 | 1.5201 | 49.6
293.15 K | 1165.46 | 1.5185 | 49.2
298.15 K | 1162.31 | 1.516 | 48.7
303.15 K | 1159.17 | 1.5142 | 48.4
308.15 K | 1156.04 | 1.5121 | 48
313.15 K | 1152.91 | 1.5103 | 47.6
318.15 K | 1149.78 | 1.5083 | 47.1
323.15 K | 1146.63 | 1.5069 | 46.7
328.15 K | 1143.27 | 1.5046 | 46.2
